According to PubChem BioAssay (NCI):
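In this assay, cells in 96-well plates receive the compound at five concentrations for 48 hours. Endpoints are linearly interpolated between the surrounding concentrations. The concentration for full growth arrest is given as TGI.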

Tests used:
Assay in all cases: DTP human tumour cell line panel, 48 h
[1] = tested on: OVCAR-5 ovarian
[2] = tested on: M14 melanoma
[3] = tested on: SN12C renal
[4] = tested on: HCT-116 colon
[5] = tested on: A498 renal
[6] = tested on: UO-31 renal
[7] = tested on: MCF7 breast
[8] = tested on: HL-60(TB) leukemia
[9] = tested on: U251 CNS
[10] = tested on: HS 578T breast
[11] = tested on: HCT-15 colon

| Compound | TGI [1] [µM] | TGI [2] [µM] | TGI [3] [µM] | TGI [4] [µM] | TGI [5] [µM] | TGI [6] [µM] | TGI [7] [µM] | TGI [8] [µM] | TGI [9] [µM] | TGI [10] [µM] | TGI [11] [µM] |
| --- | --- | --- | --- | --- | --- | --- | --- | --- | --- | --- | --- |
| CSc1ncnc2c1ncn2CCC(=O)O | > 100 | > 100 | > 100 | > 100 | > 100 | > 100 | > 100 | > 100 | – | – | – |
| CCOC1OC(COC(=O)C(C)(C)C)C(O)CC1n1cc(C)c(=O)[nH]c1=O (configuration not stated) | > 100 | > 100 | > 100 | > 100 | > 100 | > 100 | > 100 | – | > 100 | > 100 | > 100 |
| c1csc(-c2nn3c(C45CC6CC(CC(C6)C4)C5)nnc3s2)c1 | > 100 | > 100 | > 100 | > 100 | > 100 | > 100 | – | > 100 | > 100 | > 100 | > 100 |
| COc1ccc2c3c1OC1C(F)C=CC4(O)C(C2)NCCC314 (configuration not stated) | 12.8 | 4.93 | 10.3 | 3.01 | 15.6 | 4.62 | 5.25 | – | 6.59 | 5.83 | 11.1 |
| CC(C)CC(NC(=O)C(C)(CI)Cc1ccccc1)C(=O)Nc1ccccc1 (configuration not stated) | > 100 | > 100 | > 100 | > 100 | > 100 | > 100 | > 100 | > 100 | > 100 | – | > 100 |
| FC1(F)[Se]C2C3CCC(C3)C2C1(F)F (configuration not stated) | > 100 | > 100 | > 100 | > 100 | > 100 | > 100 | > 100 | – | > 100 | > 100 | > 100 |
| CC(=O)Nc1ccc2c3c(cc(O)c2c1)N(C(=O)CCCC(=O)N1CC(CCl)c2c1cc(O)c1cc(NC(C)=O)ccc21)CC3CCl (configuration not stated) | 0.276 | 0.0175 | > 100 | – | – | 0.0604 | – | 0.0153 | < 0.0139 | – | 11.5 |
| O=c1c2cc(-c3ccccc3)cnc2sn1-c1ccc(Br)cc1 | > 100 | > 100 | > 100 | > 100 | > 100 | > 100 | > 100 | > 100 | > 100 | – | > 100 |
| CC1=C(C#N)C(=C(C#N)C#N)OC1(C)Cc1ccccc1 (configuration not stated) | > 100 | > 100 | > 100 | > 100 | > 100 | 37 | > 100 | – | > 100 | > 100 | 83 |
| COc1ccccc1Nc1nc2c([nH]1)c(=O)n(C)c(=O)n2C | – | > 10 | > 10 | – | – | – | > 10 | > 10 | – | – | > 10 |
| CC(=O)NC1C(OC(C)C(=O)NC(C)C(=O)NC(CCC(=O)NCCCCCNc2ccc([N+](=O)[O-])c3[nH]c4ccccc4c(=O)c23)C(N)=O)C(O)C(CO)OC1(C)OCc1ccccc1 (configuration not stated) | > 100 | > 100 | > 100 | > 100 | > 100 | > 100 | > 100 | – | > 100 | > 100 | > 100 |
| COc1cccc(/C=N/n2c(Cc3ccccc3)n[nH]c2=O)c1 | > 100 | > 100 | > 60.3 | > 100 | > 100 | > 100 | > 100 | – | > 100 | 50 | > 100 |
| CO/C=C/C=C(\C#N)C(=O)OC | > 100 | – | > 100 | > 100 | > 100 | > 100 | > 100 | – | > 100 | > 100 | > 100 |
| Cc1ccc2c(c1)C(=C(C#N)C#N)CCCS2(=O)=O | > 100 | > 100 | > 100 | > 100 | > 100 | > 100 | – | > 100 | > 100 | > 100 | > 100 |
| CSC1=N/C(=C\c2ccc(Cl)cc2)C(=O)N1CN1CCCCC1 | > 100 | > 100 | > 100 | > 100 | > 100 | > 100 | 82.8 | – | > 100 | > 100 | > 100 |
| O=C(Nc1ccc(C(F)(F)F)cc1)NC(F)(F)F | > 100 | > 100 | > 100 | > 100 | > 100 | > 100 | – | > 100 | > 100 | > 100 | > 100 |
| CSC12c3cc(C)n(-c4ccc([N+](=O)[O-])cc4)c3CC(C)(C)CN1C(=O)C2Oc1ccccc1 (configuration not stated) | > 100 | > 100 | > 100 | > 100 | > 100 | > 100 | > 100 | – | > 100 | – | > 100 |
| Cc1[nH]c(=O)nc2nc3cc(Cl)cc(Cl)c3c(NC(C)(CO)CO)c12 | – | > 100 | > 100 | > 100 | 99.4 | > 100 | > 100 | – | 28.8 | > 100 | > 100 |
